Results: ChEMBL document CHEMBL1201862, “PubChem BioAssay data set” (2004)
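Cultured in 96-well plates, cells were exposed to test compound for 48 hours across five concentrations. GI50 is the concentration that inhibits growth by half.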 Activity calls are given as the source filed them. No stated cut-off is given here; in the data, active = GI50 up to about 1.1 µM and inactive = higher.

Assays:
Assay in all cases: NCI anticancer screen, dose series, 48 h
SF-539 = system: SF-539
Hs-578T = system: Hs-578T
TK-10 = system: TK-10
MDA-MB-231 = system: MDA-MB-231
SK-MEL-2 = system: SK-MEL-2
SNB-75 = system: SNB-75
CCRF-CEM = system: CCRF-CEM
HOP-62 = system: HOP-62
BT-549 = system: BT-549
HT-29 = system: HT-29
ACHN = system: ACHN
U-251 = system: U-251
DU-145 = system: DU-145
OVCAR-3 = system: OVCAR-3
MDA-MB-435 = system: MDA-MB-435
HCT-116 = system: HCT-116
SK-MEL-5 = system: SK-MEL-5
KM12 = system: KM12
SK-MEL-28 = system: SK-MEL-28
SF-295 = system: SF-295
RXF 393 = system: RXF 393
NCI-H226 = system: NCI-H226
NCI/ADR-RES = system: NCI/ADR-RES
K562 = system: K562
NCI-H460 = system: NCI-H460
CAKI-1 = system: CAKI-1
OVCAR-8 = system: OVCAR-8
OVCAR-4 = system: OVCAR-4
HCT-15 = system: HCT-15
NCI-H522 = system: NCI-H522
OVCAR-5 = system: OVCAR-5
A498 = system: A498
SW-620 = system: SW-620
UO-31 = system: UO-31
RPMI-8226 = system: RPMI-8226
MDA-N = system: MDA-N
PC-3 = system: PC-3
HCC 2998 = system: HCC 2998
UACC-62 = system: UACC-62
IGROV-1 = system: IGROV-1
T47D = system: T47D
NCI-H23 = system: NCI-H23
COLO 205 = system: COLO 205
SR = system: SR
M14 = system: M14
SNB-19 = system: SNB-19
SN12C = system: SN12C
HOP-92 = system: HOP-92
A549 = system: A549
MOLT-4 = system: MOLT-4
Malme-3M = system: Malme-3M
SF-268 = system: SF-268
786-0 = system: 786-0
HL-60 = system: HL-60
LOX IMVI = system: LOX IMVI
MCF7 = system: MCF7
UACC-257 = system: UACC-257
EKVX = system: EKVX

Structure (SMILES): CC(=O)OCC1OC(N2C(S)=C(C#N)C(c3ccco3)C(C(C)=O)=C2c2ccccc2)C(OC(C)=O)C(OC(C)=O)C1OC(C)=O (configuration not stated)
- GI50 (SF-539): 78.5 µM (inactive)
- GI50 (Hs-578T): 17.7 µM (inactive)
- GI50 (TK-10): > 100 µM (inactive)
- GI50 (MDA-MB-231): > 100 µM (inactive)
- GI50 (SK-MEL-2): > 100 µM (inactive)
- GI50 (SNB-75): 8.49 µM (inactive)
- GI50 (CCRF-CEM): 28.3 µM (inactive)
- GI50 (HOP-62): 16.9 µM (inactive)
- GI50 (BT-549): > 100 µM (inactive)
- GI50 (HT-29): > 100 µM (inactive)
- GI50 (ACHN): > 10 µM (inactive)
- GI50 (U-251): 39.3 µM (inactive)
- GI50 (DU-145): 79.8 µM (inactive)
- GI50 (OVCAR-3): 77.6 µM (inactive)
- GI50 (MDA-MB-435): > 100 µM (inactive)
- GI50 (HCT-116): 51.9 µM (inactive)
- GI50 (SK-MEL-5): 29 µM (inactive)
- GI50 (KM12): > 100 µM (inactive)
- GI50 (SK-MEL-28): 30.1 µM (inactive)
- GI50 (SF-295): 23.4 µM (inactive)
- GI50 (RXF 393): > 100 µM (inactive)
- GI50 (NCI-H226): > 100 µM (inactive)
- GI50 (NCI/ADR-RES): > 100 µM (inactive)
- GI50 (K562): > 100 µM (inactive)
- GI50 (NCI-H460): > 100 µM (inactive)
- GI50 (CAKI-1): 40.9 µM (inactive)
- GI50 (OVCAR-8): 61 µM (inactive)
- GI50 (OVCAR-4): 13.4 µM (inactive)
- GI50 (HCT-15): > 100 µM
- GI50 (NCI-H522): 32.1 µM (inactive)
- GI50 (OVCAR-5): 62.4 µM (inactive)
- GI50 (A498): > 100 µM (inactive)
- GI50 (SW-620): 89.9 µM (inactive)
- GI50 (UO-31): 29.3 µM (inactive)
- GI50 (RPMI-8226): 95.9 µM (inactive)
- GI50 (MDA-N): 26.2 µM (inactive)
- GI50 (PC-3): 24.9 µM (inactive)
- GI50 (HCC 2998): > 100 µM (inactive)
- GI50 (UACC-62): 34 µM (inactive)
- GI50 (IGROV-1): 54.5 µM (inactive)
- GI50 (T47D): > 100 µM (inactive)
- GI50 (NCI-H23): 64.4 µM (inactive)
- GI50 (COLO 205): 64.9 µM (inactive)
- GI50 (SR): > 100 µM (inactive)
- GI50 (M14): 94.6 µM (inactive)
- GI50 (SNB-19): 39.5 µM (inactive)
- GI50 (SN12C): 29.4 µM (inactive)
- GI50 (HOP-92): 32.9 µM (inactive)
- GI50 (A549): 49.4 µM (inactive)
- GI50 (MOLT-4): > 100 µM (inactive)
- GI50 (Malme-3M): 52.5 µM (inactive)
- GI50 (SF-268): > 100 µM (inactive)
- GI50 (786-0): 29.3 µM (inactive)
- GI50 (HL-60): > 100 µM (inactive)
- GI50 (LOX IMVI): 32.1 µM (inactive)
- GI50 (MCF7): > 100 µM (inactive)
- GI50 (UACC-257): > 100 µM (inactive)

Structure (SMILES): Nc1ccc2nc(-c3ccccn3)c(-c3ccccn3)nc2c1
- GI50 (SF-539): > 100 µM (inactive)
- GI50 (Hs-578T): > 100 µM (inactive)
- GI50 (TK-10): > 100 µM (inactive)
- GI50 (MDA-MB-231): > 100 µM (inactive)
- GI50 (SK-MEL-2): > 100 µM (inactive)
- GI50 (SNB-75): > 100 µM (inactive)
- GI50 (CCRF-CEM): > 100 µM (inactive)
- GI50 (BT-549): > 100 µM (inactive)
- GI50 (ACHN): > 100 µM (inactive)
- GI50 (U-251): > 100 µM (inactive)
- GI50 (DU-145): > 100 µM (inactive)
- GI50 (OVCAR-3): > 100 µM (inactive)
- GI50 (MDA-MB-435): > 100 µM (inactive)
- GI50 (HCT-116): > 100 µM (inactive)
- GI50 (SK-MEL-5): > 100 µM (inactive)
- GI50 (KM12): > 100 µM (inactive)
- GI50 (SK-MEL-28): > 100 µM (inactive)
- GI50 (SF-295): > 100 µM (inactive)
- GI50 (RXF 393): > 100 µM (inactive)
- GI50 (NCI-H226): > 100 µM (inactive)
- GI50 (NCI/ADR-RES): > 100 µM (inactive)
- GI50 (K562): > 100 µM (inactive)
- GI50 (NCI-H460): > 100 µM (inactive)
- GI50 (CAKI-1): > 100 µM (inactive)
- GI50 (OVCAR-8): > 100 µM (inactive)
- GI50 (OVCAR-4): > 100 µM (inactive)
- GI50 (HCT-15): > 100 µM
- GI50 (NCI-H522): > 100 µM (inactive)
- GI50 (OVCAR-5): > 100 µM (inactive)
- GI50 (A498): > 100 µM (inactive)
- GI50 (SW-620): > 100 µM (inactive)
- GI50 (UO-31): > 100 µM (inactive)
- GI50 (RPMI-8226): > 100 µM (inactive)
- GI50 (MDA-N): > 100 µM (inactive)
- GI50 (PC-3): > 100 µM (inactive)
- GI50 (HCC 2998): > 100 µM (inactive)
- GI50 (UACC-62): > 100 µM (inactive)
- GI50 (EKVX): > 100 µM (inactive)
- GI50 (IGROV-1): > 100 µM (inactive)
- GI50 (T47D): > 100 µM (inactive)
- GI50 (COLO 205): > 100 µM (inactive)
- GI50 (SR): > 100 µM (inactive)
- GI50 (M14): > 100 µM (inactive)
- GI50 (SNB-19): > 100 µM (inactive)
- GI50 (SN12C): > 100 µM (inactive)
- GI50 (HOP-92): > 100 µM (inactive)
- GI50 (A549): > 100 µM (inactive)
- GI50 (MOLT-4): > 100 µM (inactive)
- GI50 (Malme-3M): > 100 µM (inactive)
- GI50 (SF-268): > 100 µM (inactive)
- GI50 (786-0): > 100 µM (inactive)
- GI50 (HL-60): > 100 µM (inactive)
- GI50 (LOX IMVI): > 100 µM (inactive)
- GI50 (MCF7): > 100 µM (inactive)
- GI50 (UACC-257): > 100 µM (inactive)
